Measurements from patent US8871208B2, “11-β-hydroxysteroid dehydrogenase type 1 (11β-HSD1) inhibitors and uses thereof” (AbbVie Inc., priority 2009, dated 2014).

Target: T1, truncated human 11β-HSD-1 enzyme (24-287AA) (Homo sapiens, UniProt P28845)
T1 construct: truncated human 11β-HSD-1 enzyme (24-287AA); made in house; host or cells: E. coli (lysate)
T1 sequence (P28845 24-287): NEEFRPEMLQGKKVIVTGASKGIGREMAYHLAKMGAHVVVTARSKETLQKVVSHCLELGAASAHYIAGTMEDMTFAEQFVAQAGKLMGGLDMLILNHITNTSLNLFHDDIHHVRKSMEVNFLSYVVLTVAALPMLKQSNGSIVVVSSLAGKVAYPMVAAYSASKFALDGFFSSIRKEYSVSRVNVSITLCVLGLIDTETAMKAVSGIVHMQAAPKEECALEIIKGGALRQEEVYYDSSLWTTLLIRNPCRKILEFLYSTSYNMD
Test: Human 11β-HSD-1 enzymatic SPA assay
Assay type: biochemical
Conditions: human enzyme, SPA
Experimental: The ability of test compounds to inhibit human 11β-HSD-1 enzymatic activity in vitro was evaluated in a Scintillation Proximity Assay (SPA). […] The reaction was stopped by adding a non-specific 11β-HSD inhibitor, 18β-glycyrrhetinic acid. The tritiated cortisol was captured by a mixture of an anti-cortisol monoclonal antibody and SPA beads coated with anti-mouse antibodies. The reaction plate was shaken at room temperature and the radioactivity bound to SPA beads was then measured on a β-scintillation counter. The 11β-HSD-1 assay was carried out in 96-well microtiter plates in a total volume of 220 μl. […] In order to drive the reaction in the forward direction, 1 mM G-6-P was also added. Solid compound was dissolved in DMSO to make a 10 mM stock followed by a subsequent 10-fold dilution with 3% DMSO in Tris/EDTA buffer (pH 7.4). 22 μl of titrated compounds was then added in triplicate to the substrate. Reactions were initiated by the addition of 10 μl of 0.1 mg/ml E. coli lysates overexpressing 11β-HSD-1 enzyme. After shaking and incubating plates for 30 minutes at room temperature, reactions were stopped by adding 10 μl of 1 mM glycyrrhetinic acid. The product, tritiated cortisol, was captured by adding 10 μl of 1 μM monoclonal anti-cortisol antibodies and 100 μl SPA beads coated with anti-mouse antibodies. After shaking for 30 minutes, plates were read on a liquid scintillation counter Topcount. Percent inhibition was calculated based on the background and the maximal signal. Wells that contained substrate without compound or enzyme were used as the background, while the wells that contained substrate and enzyme without any compound were considered as maximal signal. Percent of inhibition of each compound was calculated relative to the maximal signal and IC50 curves were generated. This assay was applied to 11β-HSD-2 as well, whereby tritiated cortisol and NAD^+ were used as substrate and cofactor, respectively.
For `C[S+]([O-])[C@]12C[C@@H]3C[C@H](C1)[C@@H](NC(=O)C(C)(C)Oc1ccc(F)cc1Cl)[C@@H](C3)C2` (stereo partly shown) [2-(2-chloro-4-fluorophenoxy)-2-methyl-N-[(E)-5-(methylsulfinyl)-2-adamantyl]propanamide], the IC50 was 28 nM.
With `CC1(C)C(=O)N(C2C3CC4CC2CC(C(N)=O)(C4)C3)CC1COc1ccc(-n2ccnc2)cc1` (stereo not shown) [(E)-4-(4-{[4-(1H-imidazol-1-yl)phenoxy]methyl}-3,3-dimethyl-2-oxopyrrolidin-1-yl)adamantane-1-carboxamide] the IC50 was 76 nM.
For `O=C(O)C12CC3CC(C1)C(NC(=O)C1(c4ccccc4)CC1)C(C3)C2` (stereo not shown) [(E)-4-[(1-phenyl-cyclopropanecarbonyl)-amino]-adamantane-1-carboxylic acid], the IC50 was 102 nM.
With `CC(C)(Oc1ccc(Cl)cc1)C(=O)N[C@@H]1[C@@H]2C[C@@H]3C[C@H]1C[C@@](CS(N)(=O)=O)(C3)C2` [N-{(E)-5-[(aminosulfonyl)methyl]-2-adamantyl}-2-(4-chlorophenoxy)-2-methyl propanamide] the IC50 was 96 nM.

Target: 11βHSD-1 (Homo sapiens, UniProt P28845)
Sequence (P28845 whole entry, species assumed): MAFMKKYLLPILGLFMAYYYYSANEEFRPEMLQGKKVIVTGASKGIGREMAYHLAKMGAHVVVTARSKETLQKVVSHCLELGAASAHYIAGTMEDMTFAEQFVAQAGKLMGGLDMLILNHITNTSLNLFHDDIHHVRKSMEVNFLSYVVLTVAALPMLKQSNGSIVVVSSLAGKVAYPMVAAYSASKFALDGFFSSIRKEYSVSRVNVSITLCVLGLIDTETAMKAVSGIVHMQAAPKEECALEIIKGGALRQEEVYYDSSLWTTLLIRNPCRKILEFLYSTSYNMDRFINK
Test: not given
Conditions: Table 1; @ 10 μM; cited from earlier work
For `Cc1c(Cl)cccc1S(=O)(=O)Nc1ccc2c(c1)nc(C)n2C` [Example 505], the “% @ 10 μM” value is given as 110% @ 10.

Same assay, conditions: Table 1; Barf et al., Drugs of the Future 31(3), 231-243 (2006); read-out: IC50; cited from earlier work
For `O=C1CC(c2ccccc2)Oc2ccccc21` (stereo not shown) [Example 497], the IC50 is listed as 18000 nM.
In the case of `CCCC(=O)Cc1csc(NS(=O)(=O)c2cccc(Cl)c2C)n1` [Example 502], the IC50 is listed as 14 nM.
In the case of `CC(C)c1nsc(NS(=O)(=O)c2ccc(Oc3ccccc3)cc2)n1` [Example 503], the IC50 is given as 219 nM.
For `COc1cc(-c2nnc(C34CC5CC(CC(C5)C3)C4)n2C)cc(OC)c1OC` [Example 507], the IC50 is given as less than 10 nM.
For `CC(C)(C(=O)NC1C2CC3CC(C2)CC1C3)c1ccc(F)cc1` (stereo not shown) [Example 512], the IC50 is listed as less than 1000 nM.
In the case of `O=C(c1ccc(-c2ccccc2[N+](=O)[O-])o1)N1CC[C@@H]2CCCC[C@@H]2C1` [Example 514], the IC50 is listed as 7.7 nM.
In the case of `O=C(CS(=O)(=O)N1CCCC1)c1ccc(F)cc1` [Example 519], the IC50 is given as 94 nM.
For `O=C(Cc1ccc(Cl)cc1)c1ccc(Br)cc1` [Example 520], the IC50 is listed as 77 nM.
In the case of `CC(=O)Nc1ccc(OCC(=O)c2ccc(Cl)cc2)cc1` [Example 521], the IC50 is given as 153 nM.
In the case of `O=C(c1ccc(OC(F)(F)F)cc1)C1CCN(C(=O)c2ccc(F)cc2)CC1` [Example 523], the IC50 is listed as 50 nM.

Same assay, conditions: Table 3; @ 39 nM; cited from earlier work
In the case of `CC1(C2CC2)Cc2nnc(-c3ccccc3Cl)n2CCS1` (stereo not shown) [Example 534], the “% @ 39 nM” value is given as 71.8% @ 39.

Same assay, conditions: Table 3; Boyle et al., Expert Opin. Ther. Patents 19(6), 801-825 (2009); read-out: IC50; cited from earlier work
For `CC(CC(F)(F)F)c1nnc(C23CCC(c4nnc(-c5ccccc5C(F)(F)F)n4C)(CC2)CC3)o1` (stereo not shown) [Example 531], the IC50 is listed as 9 to 100 nM.
In the case of `CCOc1cc(NC(C)=O)ccc1-c1nnc(N(C)c2ccc(F)cc2)n1C` [Example 532], the IC50 is listed as 3.4 nM.
In the case of `N#Cc1ccccc1CSc1nc(O)c(Cl)c2ccc(Cl)cc12` [Example 537], the IC50 is listed as 2 nM.
For `CCSc1nc(N2CCOC(C(=O)O)C2)ccc1C(=O)NC1C2CC3CC(C2)CC1C3` (stereo not shown) [Example 547], the IC50 is given as 6 nM.
For `O=C(NC1C2CC3CC(C2)CC1C3)[C@H]1CCCN1S(=O)(=O)c1ccc(Cl)cc1` (stereo partly shown) [Example 548], the IC50 is listed as less than 0.03 nM.
For `O=C(NC1C2CC3CC1CC(O)(C3)C2)c1ccc(Oc2ccc(Cl)cn2)cc1` (stereo not shown) [Example 551], the IC50 is given as roughly 70 nM.
In the case of `Cc1cc(Cl)ccc1OCCCC(=O)N(C)C1C2CC3CC(C2)C(CO)C1C3` (stereo not shown) [Example 555], the IC50 is given as 1 nM.
For `CC1(C2CC2)CN(C2C3CC4CC2CC(O)(C4)C3)C(=O)N1C1CC1` (stereo not shown) [Example 557], the IC50 is listed as 3 nM.
For `CN1C(=O)N(C2C3CC4CC(C3)CC2C4)C[C@@H]1C(C)(C)C` (stereo partly shown) [Example 558], the IC50 is given as less than 50 nM.
For `C[C@@H](c1ccc(Cl)cc1)N1CCN([C@H]2C3CC4CC2C[C@](O)(C4)C3)C1=O` [Example 559], the IC50 is given as 12 nM.
For `CC1(C)NC2(CCN(C(=O)NC3C4CC5CC(C4)CC3C5)CC2)c2c(Cl)cccc21` (stereo not shown) [Example 560], the IC50 is listed as less than 50 nM.
In the case of `O=C(c1ccc(-c2cc(Cl)c(C[C@@H]3CCN(C4CCCCC4)C3=O)c(Cl)c2)cc1)N1CCN(CCF)CC1` [Example 564], the IC50 is listed as 115 nM.
In the case of `O=C1[C@H](Cc2c(Cl)cc(-c3ccc(F)cc3)cc2Cl)CCN1C1CCc2n[nH]cc2C1` (stereo partly shown) [Example 570], the IC50 is given as 276 nM.
For `O=C(c1ccc(-c2cc(Cl)c(CN3CCC(C4CCCCC4)C3=O)c(Cl)c2)cc1)N1CCN(CCF)CC1` (stereo not shown) [Example 572], the IC50 is given as 15.4 nM.
For `C[C@@H](c1ccc2ccccc2c1)N1CCN(Cc2ccccc2)C1=O` [Example 575], the IC50 is listed as 2.9 nM.
In the case of `O=C(c1cnn(C2CCNCC2)c1C1CC1)N1CC[C@@H](c2ccccc2C(F)(F)F)C1` [Example 578], the IC50 is listed as less than 30 nM.
For `CC(=O)N1CCC2(CC(C3(c4ccc(Cl)cc4)CC3)=NO2)C1` (stereo not shown) [Example 579], the IC50 is given as less than 5000 nM.
In the case of `O=C1OC2(CCN(C(=O)C(O)c3ccc(Br)cc3F)C2)c2ccccc21` (stereo not shown) [Example 580], the IC50 is given as less than 1000 nM.
For `O=C1OC2(CCN(C(=O)Nc3ccc(Cl)cc3F)C2)c2ccccc21` (stereo not shown) [Example 581], the IC50 is listed as less than 20000 nM.
For `O=C(N1CCC(c2cn[nH]c2)CC1)N1CCOc2ccc(Cl)cc21` [Example 583], the IC50 is listed as 39 nM.
In the case of `Cc1ccc(C(=O)N(C2CC2)[C@H]2CC[C@H](CCO)CC2)c(F)c1` [Example 594], the IC50 is given as 2 nM.
In the case of `C[C@@H]1CN(c2ccc(C(N)(C(F)(F)F)C(F)(F)F)cc2)CCN1S(=O)(=O)c1ccc(C(C)(O)C(F)(F)F)cc1` (stereo partly shown) [Example 596], the IC50 is given as less than 10 nM.
For `Cc1ccc(S(=O)(=O)N2CCCN(c3c(Cl)cncc3Cl)CC2)cc1` [Example 597], the IC50 is listed as 910 nM.
In the case of `O=S(=O)(Cc1ccc(C(F)(F)F)cc1)N1CCN(c2ncccc2C(F)(F)F)CC1` [Example 598], the IC50 is listed as 430 nM.

Same assay, conditions: Table 4; Webster et al., Expert Opin. Ther. Patents 17(12), 1407-1422 (2007); read-out: IC50; cited from earlier work
In the case of `O=S(=O)(Nc1ccnc(C2CC2)n1)c1ccc2ccccc2c1` [Example 680], the IC50 is listed as 20 nM.
For `Cc1c(S(=O)(=O)Nc2nc(C34CC5CC(CC(C5)C3)C4)cs2)sc2ccc(Cl)cc12` [Example 681], the IC50 is listed as 18 nM.
In the case of `O=S(=O)(Nc1nc(C23CC4CC(CC(C4)C2)C3)cs1)c1cc2ccccc2s1` [Example 682], the IC50 is listed as 42 nM.

Same assay, conditions: Table 4; Webster et al., Expert Opin. Ther. Patents 17(12), 1407-1422 (2007); read-out: Ki; cited from earlier work
In the case of `Cc1cc(N)nc(NS(=O)(=O)c2sc(-c3ccc(C#N)cc3)nc2C)c1` [Example 672], the Ki is given as 2.8 nM.
For `CC(O)c1cccc(NS(=O)(=O)c2ccc(-c3ccc(C#N)cc3)cc2)n1` (stereo not shown) [Example 673], the Ki is given as 1.8 nM.

Same assay, conditions: Table 5; Boyle, Current Opinion in Drug Discovery & Development 2008, 11(4), 495-511; cited from earlier work
In the case of `O=C(c1cnoc1-c1ccc(F)cc1)N1CCC(c2ccccc2)C1` (stereo not shown) [Example 700], the IC50 is listed as 8 − 10,000 nM.

Same assay, conditions: Table 5; Boyle, Current Opinion in Drug Discovery & Development 2008, 11(4), 495-511; read-out: IC50; cited from earlier work
For `CC1(C)CC2CC(C)(CN2C(=O)c2cc(Cl)c(N)c(Cl)c2)C1` (stereo not shown) [Example 693], the IC50 is listed as 4 nM.
In the case of `CC1(C)CC2CC(C)(CN2C(=O)c2ccc(C(C)(C)O)cc2)C1` (stereo not shown) [Example 696], the IC50 is listed as 7 nM.
For `COc1cc(C(=O)N2CCC(n3c(=O)[nH]c4ccccc43)CC2)ccc1C` [Example 698], the IC50 is given as 110 nM.
In the case of `O=C(N[C@H]1CCCN(S(=O)(=O)c2ccc(F)c3ccccc23)C1)N1CCC(O)CC1` [Example 703], the IC50 is given as 13 nM.
For `O=S(=O)(Cc1ccc(C(F)(F)F)cc1)N1CCN(c2ncccc2C(F)(F)F)CC1` [Example 707], the IC50 is listed as 430 nM.
For `COc1ccc(S(=O)(=O)NCC(=O)c2ccc(C(C)(C)C)cc2)cc1` [Example 713], the IC50 is given as 82 nM.

Same assay, conditions: cited from earlier work
For `C[C@H](CCC(=O)O)[C@H]1CC[C@H]2[C@@H]3[C@H](O)C[C@@H]4C[C@H](O)CC[C@]4(C)[C@H]3CC[C@]12C` [Example 490], the IC50 is given as 2800 nM.
In the case of `Cc1c(Cl)cccc1S(=O)(=O)Nc1nc(CC(=O)N2CCN(C)CC2)cs1` [Example 500], the IC50 is given as 96 nM.
In the case of `C[C@H](NC1=NC(=O)C(C)(C(F)(F)F)S1)c1ccccc1F` (stereo partly shown) [Example 527], the IC50 is given as 33 nM.
In the case of `Cc1cc(C)nc(NS(=O)(=O)N2CCN(c3ccc(C#N)cn3)CC2)c1` [Example 674], the Ki is given as 0.66 nM.
For `C[C@](O)(c1ccc(C(=O)N(C2CCC(c3cccnc3)CC2)C2CC2)cc1)C(F)(F)F` (stereo partly shown) [Example 714], the IC50 is listed as 1.4 nM.

Same assay, conditions: read-out: IC50; cited from earlier work
In the case of `CC(C)[C@@H]1CC[C@@H](C)C[C@@H]1O` [Example 524], the IC50 is given as 35000 nM.
In the case of `Cc1c(Cl)cccc1S(=O)(=O)N1CCC[C@H](C(=O)NC2CCCCC2)C1` [Example 600], the IC50 is given as 3 nM.
For `O=C(N[C@H]1CCCN(S(=O)(=O)c2ccc(F)c3ccccc23)C1)N1C2CCC1CC(O)C2` (stereo partly shown) [Example 601], the IC50 is given as 3 nM.

Same assay, conditions: read-out: Ki; cited from earlier work
For `N#Cc1ccc(C2CCN(S(=O)(=O)Nc3cccc(N)n3)CC2)cc1` [Example 671], the Ki is given as less than 1 nM.
